Patent US20200369728A1, “PEPTIDOMIMETIC MACROCYCLES AND USES THEREOF” (Aileron Therapeutics, Inc., priority 2015, published 2020)
Bridge positions count the residues as written; N and C are the ends. Square brackets hold non-standard residues; d marks the D form. Peptide text beside a SMILES is read from it. R8 = C=CCCCCCC[C@@](C)(N)C(=O)O; Cba = N[C@@H](CC1CCC1)C(=O)O; S5 = C=CCCC[C@](C)(N)C(=O)O; Nle = CCCC[C@H](N)C(=O)O

Columns and labels:
[1] = test system: Caspase 3; test: Caspase 3 detection assay in SJSA1 cells; assay type: cell-based; conditions: SJSA1, 48 h, Caspase 3 activation over DMSO-treated cells
[2] = test system: SJSA-1 cells; test: Cell lysis by peptidomimetic macrocycles (LDH release); assay type: cell-based; conditions: SJSA-1, 1 h
In short: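 Membrane lysis measured as supernatant LDH after a 1 h, 37 °C exposure of SJSA-1 cells, held in RPMI with 1% FBS, to macrocycles at final 6.25-50 μM with 0.5% DMSO. Lytic references were 10 μM melittin and 1% Triton X-100; DMSO alone served as non-lytic control.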

Row | Structure (SMILES) | caspase 0.3 μM [1] | caspase 3 μM [1] | caspase 10 μM [1] | caspase 30 μM [1] | 6.25 μM % Lysed cells (1 h LDH) [2] | 25 μM % Lysed cells (1 h LDH) [2] | 50 μM % Lysed cells (1 h LDH) [2]
1 | CC(=O)N[C@@H](CC(C)C)C(=O)N[C@H](C(=O)N[C@@H](Cc1ccccc1)C(=O)N[C@]1(C)CCCCCCC=CCCC[C@@](C)(C(=O)N[C@@H](C)C(=O)N[C@@H](Cc2c[nH]cn2)C(=O)N[C@@H](Cc2ccccc2)C(=O)N[C@@H](C)C(N)=O)NC(=O)[C@H](CC(C)C)NC(=O)[C@H](CCC(N)=O)NC(=O)[C@H](C)NC(=O)[C@H](Cc2c[nH]c3ccccc23)NC(=O)[C@H](Cc2c[nH]cn2)NC(=O)[C@H](C)NC1=O)[C@@H](C)O [compound 183] (Ac-LTF[R8]AHWAQL[S5]AHFA-NH2; staple 4-11) | 1 | 1 | 4 | 8 | 2% | 0% | 3%
2 | CC[C@H](C)[C@H](NC(=O)[C@H](C)NC(=O)[C@H](C)NC(=O)[C@]1(C)CCCC=CCCCCCC[C@@](C)(NC(=O)[C@H](Cc2ccccc2)NC(=O)[C@@H](NC(=O)[C@H](CC(C)C)NC(C)=O)[C@@H](C)O)C(=O)N[C@@H](C)C(=O)N[C@@H](Cc2ccc(O)cc2)C(=O)N[C@@H](Cc2c[nH]c3ccccc23)C(=O)N[C@@H](C)C(=O)N[C@@H](C)C(=O)N[C@@H](CC(C)C)C(=O)N1)C(=O)N[C@H](C)C(N)=O (single isomer, unassigned) [compound 203] | 1 | 3 | 12 | 10 | 0% | 2% | 2%
3 | CC(=O)N[C@@H](CC(C)C)C(=O)N[C@H](C(=O)N[C@@H](Cc1ccccc1)C(=O)N[C@]1(C)CCCCCCC=CCCC[C@@](C)(C(=O)N[C@@H](C)C(=O)N[C@@H](Cc2c[nH]cn2)C(=O)N[C@@H](Cc2ccccc2)C(=O)N[C@@H](C)C(N)=O)NC(=O)[C@H](CC(C)C)NC(=O)[C@H](C)NC(=O)[C@H](C)NC(=O)[C@H](Cc2c[nH]c3ccccc23)NC(=O)[C@H](Cc2ccc(O)cc2)NC(=O)[C@H](C)NC1=O)[C@@H](C)O [compound 204] (Ac-LTF[R8]AYWAAL[S5]AHFA-NH2; staple 4-11) | 1 | 4 | 10 | 10 | 4% | 2% | 0%
4 | CCCC[C@H](NC(=O)[C@H](C)NC(=O)[C@H](C)NC(=O)[C@]1(C)CCCC=CCCCCCC[C@@](C)(NC(=O)[C@H](Cc2ccccc2)NC(=O)[C@@H](NC(=O)[C@H](CCC(=O)O)NC(C)=O)[C@@H](C)O)C(=O)N[C@@H](C)C(=O)N[C@@H](Cc2ccc(O)cc2)C(=O)N[C@@H](Cc2c[nH]c3ccccc23)C(=O)N[C@@H](C)C(=O)N[C@@H](CCC(N)=O)C(=O)N[C@@H](CC2CCC2)C(=O)N1)C(=O)N[C@@H](C)C(N)=O [compound 237] (Ac-ETF[R8]AYWAQ[Cba][S5]AA[Nle]A-NH2; staple 4-11) | 1 | 5 | 9 | 15 | 0% | 7% | 55%
5 | CCCC[C@H](NC(=O)[C@H](C)NC(=O)[C@H](CO)NC(=O)[C@]1(C)CCCC=CCCCCCC[C@@](C)(NC(=O)[C@H](Cc2ccccc2)NC(=O)[C@@H](NC(=O)[C@H](CC(C)C)NC(C)=O)[C@@H](C)O)C(=O)N[C@@H](CCC(=O)O)C(=O)N[C@@H](Cc2ccc(O)cc2)C(=O)N[C@@H](Cc2c[nH]c3ccccc23)C(=O)N[C@@H](CO)C(=O)N[C@@H](CCC(N)=O)C(=O)N[C@@H](CC2CCC2)C(=O)N1)C(=O)N[C@@H](C)C(N)=O [compound 245] (Ac-LTF[R8]EYWSQ[Cba][S5]SA[Nle]A-NH2; staple 4-11) | 1 | 3 | 9 | 16 | 1% | 11% | 56%
6 | CC(=O)N[C@@H](CC(C)C)C(=O)N[C@H](C(=O)N[C@@H](Cc1ccccc1)C(=O)N[C@]1(C)CCCCCCC=CCCC[C@@](C)(C(=O)N[C@@H](CO)C(=O)N[C@H](C(=O)N[C@@H](C)C(N)=O)C(C)C)NC(=O)[C@H](CC(C)C)NC(=O)[C@H](CCC(N)=O)NC(=O)[C@H](C)NC(=O)[C@H](Cc2c[nH]c3ccccc23)NC(=O)[C@H](Cc2ccc(O)cc2)NC(=O)[C@H](C(C)C)NC1=O)[C@@H](C)O (single isomer, unassigned) [compound 139] | 1 | 2 | 9 | 18 | −2% | −1% | −1%
7 | CC[C@H](C)[C@H](NC(C)=O)C(=O)N[C@H](C(=O)N[C@@H](Cc1ccccc1)C(=O)N[C@]1(C)CCCCCCC=CCCC[C@@](C)(C(=O)N[C@@H](C)C(=O)N[C@@H](C)C(=O)N[C@H](C(=O)N[C@H](C)C(N)=O)[C@@H](C)CC)NC(=O)[C@H](CC(C)C)NC(=O)[C@H](CCC(N)=O)NC(=O)[C@H](C(C)C)NC(=O)[C@H](Cc2c[nH]c3ccccc23)NC(=O)[C@H](Cc2ccc(O)cc2)NC(=O)[C@H](Cc2ccccc2)NC1=O)[C@@H](C)O [compound 177] (Ac-ITF[R8]FYWVQL[S5]AAI[dA]-NH2; staple 4-11) | 1 | 1 | 8 | 20 | −1% | 0% | 1%
8 | CSCC[C@H](NC(=O)[C@H](C)NC(=O)[C@H](C)NC(=O)[C@]1(C)CCCC=CCCCCCC[C@@](C)(NC(=O)[C@H](Cc2ccccc2)NC(=O)[C@@H](NC(=O)[C@H](CC(C)C)NC(C)=O)[C@@H](C)O)C(=O)N[C@@H](C)C(=O)N[C@@H](Cc2ccc(O)cc2)C(=O)N[C@@H](Cc2c[nH]c3ccccc23)C(=O)N[C@@H](C)C(=O)N[C@@H](C)C(=O)N[C@@H](CC(C)C)C(=O)N1)C(=O)N[C@H](C)C(N)=O [compound 72] (Ac-LTF[R8]AYWAAL[S5]AAM[dA]-NH2; staple 4-11) | 1 | 1 | 4 | 10 | 2% | 0% | 3%
9 | CC(=O)N[C@@H](CC(C)C)C(=O)N[C@H](C(=O)N[C@@H](Cc1ccccc1)C(=O)N[C@]1(C)CCCCCCC=CCCC[C@@](C)(C(=O)N[C@@H](CO)C(=O)N[C@@H](C)C(=O)N[C@@H](C)C(N)=O)NC(=O)[C@H](CC2CCC2)NC(=O)[C@H](CCC(N)=O)NC(=O)[C@H](C)NC(=O)[C@H](Cc2c[nH]c3ccccc23)NC(=O)[C@H](Cc2ccc(O)cc2)NC(=O)[C@H](CCC(=O)O)NC1=O)[C@@H](C)O (single isomer, unassigned) [compound 153] | 2 | 10 | 15 | 20 | 4% | 2% | 3%
10 | CC[C@H](C)[C@H](NC(=O)[C@H](C)NC(=O)[C@H](C)NC(=O)[C@]1(C)CCCC=CCCCCCC[C@@](C)(NC(=O)[C@H](Cc2ccccc2)NC(=O)[C@@H](NC(=O)[C@H](CC(C)C)NC(C)=O)[C@@H](C)O)C(=O)N[C@@H](CCC(=O)O)C(=O)N[C@@H](Cc2ccc(O)cc2)C(=O)N[C@@H](Cc2c[nH]c3ccccc23)C(=O)N[C@@H](C)C(=O)N[C@@H](CCC(N)=O)C(=O)N[C@@H](CC2CCC2)C(=O)N1)C(=O)N[C@H](C)C(N)=O [compound 247] (Ac-LTF[R8]EYWAQ[Cba][S5]AAI[dA]-NH2; staple 4-11) | 1 | 3 | 11 | 24 | 0% | 0% | 4%
11 | CC[C@H](C)[C@H](NC(=O)[C@H](C)NC(=O)[C@H](C)NC(=O)[C@]1(C)CCCC=CCCCCCC[C@@](C)(NC(=O)[C@H](Cc2ccccc2)NC(=O)[C@@H](NC(=O)[C@H](CC(C)C)NC(C)=O)[C@@H](C)O)C(=O)N[C@@H](CCC(=O)O)C(=O)N[C@@H](Cc2c[nH]cn2)C(=O)N[C@@H](Cc2c[nH]c3ccccc23)C(=O)N[C@@H](C)C(=O)N[C@@H](CCC(N)=O)C(=O)N[C@@H](CC(C)C)C(=O)N1)C(=O)N[C@H](C)C(N)=O (single isomer, unassigned) [compound 223] | 1 | 1 | 5 | 18 | −2% | −4% | −1%
12 | CC(=O)N[C@@H](CC(C)C)C(=O)N[C@H](C(=O)N[C@@H](Cc1ccccc1)C(=O)N[C@]1(C)CCCCCCC=CCCC[C@@](C)(C(=O)N[C@@H](CO)C(=O)N[C@H](C(=O)NCC(N)=O)C(C)C)NC(=O)[C@H](CC(C)C)NC(=O)[C@H](CCC(N)=O)NC(=O)[C@H](C)NC(=O)[C@H](Cc2c[nH]c3ccccc23)NC(=O)[C@H](Cc2ccc(O)cc2)NC(=O)[C@H](C)NC1=O)[C@@H](C)O [compound 123] (Ac-LTF[R8]AYWAQL[S5]SVG-NH2; staple 4-11) | 1 | 1 | 6 | 14 | −2% | 5% | 3%
